Data set [1] concerns endogenous dopamine release in the human brain. The data set is described as follows: [^11C]PHNO PET of endogenous dopamine release after d-AMPH challenge. It is filed as in vivo. The following applies: for ΔΔBPND Mean (SD), Ca / ΔΔBPND Mean (SD), GP / ΔΔBPND Mean (SD), Pu / ΔΔBPND Mean (SD), SN / ΔΔBPND Mean (SD), VSt: attenuation of d-AMPH effect. As for the experimental part:
A T1-weighted magnetic resonance imaging (MRI) scan of the brain, performed at screening, was used to obtain anatomical information required for PET data analysis. Each subject underwent three [^11C]PHNO PET scans, one at baseline, the second approximately 3 h after a single oral dose of dex-amphetamine (d-AMPH, 0.5 mg/kg), and the third approximately 5 h after a single oral dose of Compound (I) (20 or 40 mg) and 3 h after an oral dose of dex-amphetamine (d-APMH) (0.5 mg/kg) (FIG. 2).
Subjects were positioned in the PET scanner, after the insertion of a venous cannula in an antecubital or forearm vein. Soft padding and head restraints were used to minimize head movement during data acquisition. All dynamic [^11C]PHNO PET scans were acquired on Siemens Biograph 6 PET/CT scanners (Hi-Rez (PET/CT1) or a TruePoint with TrueV, Siemens Healthcare, Erlangen, Germany). All scans for a particular subject were acquired on the same scanner. A low-dose computed tomography (CT) scan was performed immediately before each PET study to estimate signal attenuation. Following an intravenous bolus injection of [^11C]PHNO, dynamic emission data were acquired for 90 min in 26 frames of increasing duration. The dynamic images were reconstructed using Fourier rebinning and a 2D filtered discrete inverse Fourier transform algorithm with 5 mm isotropic Gaussian filter on a 128×128 matrix with 2.6 zoom giving 2 mm isotropic voxels. Appropriate corrections were applied for attenuation, randoms, and scatter.
The primary set of ROIs defined were the ventral striatum (VSt), putamen (Pu) and cerebellum. […] The cerebellum was used as a reference region. An additional set of ROIs including the caudate nucleus (Ca), globus pallidus (GP) and substantia nigra (SN) was also evaluated.
Regional TAC data extracted from the PET images were fitted using a basis function implementation of the SRTM (Gunn et al., 1997) to estimate the binding potential relative to the non-displaceable component (BPND) for each PET scan, as a measure of specific binding (Innis et al., 2007).
Reduction in [^11C]-PHNO specific binding following a d-AMPH challenge (ΔBPND^APMH) was quantified as percent change in postdose BPND (BPND^AMPH) from baseline BPND (BPND^BL):
Reduction in [^11C]-PHNO specific binding following a combination of Compound (I) and d-AMPH (ΔBPND^APMH+C1) was quantified as percent change in postdose BPND (BPND^AMPH+C1) from baseline BPND (BPND^BL):
The effect of Compound (I) (ΔΔBPND) was quantified as the percent change BPND in ΔBPND^APMH+C1 compared to ΔBPND^APMH:
All statistical comparisons were conducted using Student's t-tests for each ROI, using paired tests for within subject comparisons, and unpaired tests for between group comparisons.

The subject of the next data set is cerebral blood flow. The data set is described as follows: Average global cerebral blood flow (pCASL MRI). It counts as in vivo, human. The text has this:
Whole brain maps of regional cerebral blood flow (CBF) were obtained using an ASL methodology previously reported (Hawkins et al., 2018; Dai et al., 2008). Briefly, images were acquired using a pseudo-continuous Arterial Spin Labelling sequence (pCASL) with a multi-shot, segmented 3D stack of axial spirals (8-arms) readout with a resultant spatial resolution of 2×2×3 mm. Three control-label pairs were used to derive a perfusion weighted difference image. The labelling RF pulse had duration of 1.5 s and a post-labelling delay of 1.5 s. The sequence included background suppression for optimum reduction of the static tissue signal. A Proton Density image was acquired in 48 s using the same acquisition parameters to compute the CBF map in standard physiological units (mL blood/100 g tissue/min). Two runs were acquired per visit and averaged following preprocessing.
The T2-weighted image was co-registered to the T1-weighted image prior to creation of the DARTEL template, and each session's Proton Density image was then co-registered to the T2-weighted image. The parameters for this transformation were then applied to the CBF maps, and the DARTEL flow field applied to normalize to CBF maps to MNI space, before smoothing with a 6 mm FWHM kernel.
Average global cerebral blood flow (CBF) was extracting using an SPM MNI whole brain mask in MarsBar, and was analyzed at each time point with a mixed two-way ANOVA (treatment (placebo/drug) within subject factor, dose level (40 mg/160 mg) between-subject factor) (FIG. 4).

Structures are written as SMILES. Marks after values point to notes of the source that are not given here.

Regarding `C[C@H](NC(=O)Cn1nnc2ccccc2c1=O)c1ccc(OC(F)(F)F)cc1` [Compound (I), (S)-2-(4-oxobenzo[d][1,2,3]triazin-3(4H)-yl)-N-(1-(4-(trifluoromethoxy)phenyl)ethyl)acetamide], the “dose effect on ΔΔBPND, 40 mg group vs 20 mg group” value in data set [1] (Pu and GP, one-tailed t-tests, p<0.01) is on record as “significantly greater than that in the 20 mg group”. In data set [1] (all ROI, significant in Pu, VSt and SN), the “effect of pre-treatment on the d-AMPH challenge” value was “attenuated the effect of the d-AMPH challenge in all ROI examined”. Besides, in data set [1] (20 mg single oral dose), the “ΔΔBPND Mean (SD), Ca” value is listed as −4.2 (59.2) %; the “ΔΔBPND Mean (SD), GP” value was −3.2 (19.7) %; the “ΔΔBPND Mean (SD), Pu” value is 16.4 (11.3)* %; the “ΔΔBPND Mean (SD), SN” value was 25.6 (49.7) %. The “ΔΔBPND Mean (SD), VSt” value in data set [1] (20 mg single oral dose) is 13.8 (14.1)* %. In data set [1] (40 mg single oral dose), the “ΔΔBPND Mean (SD), Ca” value is listed as 24.8 (26.7) %; the “ΔΔBPND Mean (SD), GP” value is 66.6 (32.4) %; the “ΔΔBPND Mean (SD), Pu” value was 36.4 (7.7) * %; the “ΔΔBPND Mean (SD), SN” value was 40.8 (58.6) %. In addition, the “ΔΔBPND Mean (SD), VSt” value in data set [1] (40 mg single oral dose) is 22.6 (20.3) %. Moreover, in data set [1] (all subjects (20 or 40 mg)), the “ΔΔBPND Mean (SD), Ca” value is 10.3 (45.9) %; the “ΔΔBPND Mean (SD), GP” value is given as 31.7 (44.6) %; the “ΔΔBPND Mean (SD), Pu” value is on record as 26.4 (13.9)* %; the “ΔΔBPND Mean (SD), SN” value was 33.2 (51.8)* %. Further, in data set [1] (all subjects (20 or 40 mg)), the “ΔΔBPND Mean (SD), VSt” value is recorded as 18.2 (17.1)* %. The blood-brain barrier crossing entry in data set [1] (healthy human volunteers) was “readily crossed the blood-brain barrier”. Further, the “modulation of dopamine release” value in data set [1] (healthy human volunteers, 20 or 40 mg single oral dose) is recorded as “dose-dependent modulation of dopamine release”. In the data set with cerebral blood flow (Day 1, 40 mg/160 mg vs placebo, F(1, 18)=5.978, p=0.025), the “effect of treatment on average global CBF (mixed two-way ANOVA)” value was “significant effect of treatment”. In the data set on cerebral blood flow (Day 1 and Day 14), the “effects on cerebral blood flow compared to placebo” value is “widespread and robust reductions at Day 1 followed by increases at Day 14”. The “effect of treatment on average global CBF (mixed two-way ANOVA)” value in the data set on cerebral blood flow (Day 14, 40 mg/160 mg vs placebo, F(1, 15)=3.558, p=0.079) was “no significant effect of treatment”.

The record behind these values is patent US20230310441A1, “TREATMENT FOR SCHIZOPHRENIA” (TAKEDA PHARMACEUTICAL COMPANY, priority 2020, published 2023).
